Source: patent US20250062039A1, “ESTIMATION OF PHARMACOKINETIC (PK) PARAMETERS OF DRUG CANDIDATES USING UNIVERSAL PK PARAMETERS BOUNDS” (Tata Consultancy Services Limited, priority 2023, published 2025)

How the values were obtained:
[1] = human, in vivo, po, 500 mg
clinical = conditions: human, in vivo, po, 500 mg
[2] = Oral 500 mg; cited from earlier work

- CL, Selected Parameter Value [1]: 280.35 mL/min
- Vd beta, Selected Parameter Value [1]: 5475.92 L
- Vss, Selected Parameter Value [1]: 4218.4 L
- AUC (clinical): 6380 ng·h/mL
- half-life (clinical): 76.2 h
SMILES: CC[C@H]1OC(=O)[C@H](C)[C@@H](O[C@H]2C[C@@](C)(OC)[C@@H](O)[C@H](C)O2)[C@H](C)[C@@H](O[C@@H]2O[C@H](C)C[C@H](N(C)C)[C@H]2O)[C@](C)(O)C[C@@H](C)CN(C)[C@H](C)[C@@H](O)[C@]1(C)O [Azithromycin]
- AUC, Maximum [2]: 6380 ng·h/mL
- AUC, Mean Value [2]: 4860 ng·h/mL
- AUC, Minimum [2]: 3500 ng·h/mL
- CL, Mean Value [2]: 664.84 mL/min
- K10, Maximum [2]: 0.12 h⁻¹
- K10, Mean Value [2]: 0.08 h⁻¹
- K10, Minimum [2]: 0.05 h⁻¹
- K12, Maximum [2]: 0.18 h⁻¹
- K12, Mean Value [2]: 0.12 h⁻¹
- K12, Minimum [2]: 0.07 h⁻¹
- K21, Maximum [2]: 0.06 h⁻¹
- K21, Mean Value [2]: 0.04 h⁻¹
- K21, Minimum [2]: 0.03 h⁻¹
- Ke, Maximum [2]: 0.02 h⁻¹
- Ke, Mean Value [2]: 0.02 h⁻¹
- Ke, Minimum [2]: 0.02 h⁻¹
- T1/2 beta, Mean Value [2]: 55.46 h
- V1, Maximum [2]: 1025.35 L
- V1, Mean Value [2]: 586.83 L
- V1, Minimum [2]: 341.94 L
- V2, Maximum [2]: 3193.05 L
- V2, Mean Value [2]: 1779.12 L
- V2, Minimum [2]: 798.71 L
- Vd beta, Mean Value [2]: 3219.51 L
- Vss, Maximum [2]: 4218.4 L
- Vss, Mean Value [2]: 2347.95 L
- Vss, Minimum [2]: 1018.78 L
